Assay results reported in patent EP0007880B1, “Medicines containing as active ingredients compounds of the benzene-sulfone type; compounds of this type and process for their preparation” (CHOAY S.A., priority 1978, dated 1980).

Experiments:
rats Wistar mâles = assay: Normolipemic and/or hypoglycemic activity in Triton W.R.-induced hyperlipidemia in fasted rats; assay type: in vivo; set-up: Cholestérol Total / Cholestérol Estérifié / Trigly-cérides: unit not given here; details: fasted rats given Triton W.R. 200mg/kg i.v.; for Cholestérol Estérifié / Cholestérol Total / Glucose / Lipides totaux / Trigly-cérides: product given simultaneously, i.p. 100 mg/kg or oral 500 mg/kg (route not stated per product), blood sampled six hours later; for Cholestérol Rapport E/T: ratio esterified/total cholesterol, product i.p. 100 mg/kg or oral 500 mg/kg, six hours later
Protocol: Les essais sont réalisés sur des groupes de 5 rats Wistar mâles (150 à 175g). Les produits testés sont administrés soit par voie intrapéritonéale, à raison de 100 mg/kg dans du soluté isotonique, soit par voie orale, en solution aqueuse à 3% de gomme adragante (1 ml/100g de poids corporel) en quantité correspondant à 500 mg/kg.
Pour ces essais, on provoque une hyperlipidémie chez les animaux au moyen du produit commercialisé par la Société ROHM et HAAS sous le nom de Triton W.R. Chez le rat à jeun, l'injection intraveineuse de Triton entraine une hyperlipidémie particulièrement nette pour les triglycérides .et de façon moindre pour les lipides totaux.
Cette hyperlipidémie est combattue par l'action des substances actives selon l'invention.
Le protocole de l'essai est le suivant. Les rats sont mis à jeûner pendant 18 heures. Le Triton W.R. est administré par voie intraveineuse en solution aqueuse à 10% à raison de 200mg/kg.
Simultanément, les rats reçoivent les produits à tester. Six heures plus tard, on effectue les dosages de façon traditionnelle sur des échantillons sanguins.

souris Swiss = assay: Acute toxicity in mice (lethal dose 50, Behrens and Karber); assay type: in vivo; details: dose 1,5g/kg, voie intrapéritonéale; mice observed 8 days

SMILES	Cholestérol Estérifié (rats Wistar mâles)	Cholestérol Total (rats Wistar mâles)	Glucose (rats Wistar mâles)	Lipides totaux (rats Wistar mâles)	Trigly-cérides (rats Wistar mâles)	Cholestérol Rapport E/T (rats Wistar mâles)	animaux encore en vie (souris Swiss)
CC(C)(O)CS(=O)(=O)c1ccccc1 [Exemple 19]	1,09	2,04	0,78 g/l	7,62 g/l	2,84	55,6	–
CCC(C)(O)CS(=O)(=O)c1ccccc1 (stereo not shown) [Exemple 20]	1,64	2,20	0,84 g/l	7,36 g/l	2,07	76,8	–
O=S(=O)(CC1(O)CCCCC1)c1ccccc1 [Exemple 21]	2,06	3,09	0,89 g/l	9,56 g/l	2,23	66,0	–
O=S(=O)(CC(O)c1ccccc1)c1ccccc1 (stereo not shown) [Exemple 22]	1,89	2,28	1,18 g/l	8,50 g/l	3,95	82,4	–
O=S(=O)(CC(O)c1ccc(Cl)cc1)c1ccccc1 (stereo not shown) [Exemple 23]	–	–	–	–	–	–	5 animaux sur 5 sont encore en vie
O=S(=O)(CC(O)c1ccc(F)cc1)c1ccccc1 (stereo not shown) [Exemple 24]	0,98	1,48	1,12 g/l	15,30 g/l	1,80	69,40	–
CC(C(O)(c1ccccc1)c1ccccc1)S(=O)(=O)c1ccccc1 (stereo not shown) [Exemple 27]	–	–	–	–	–	–	5 animaux sur 5 sont encore en vie
O=S(=O)(CC(O)c1ccccc1)c1ccc(F)cc1 (stereo not shown) [Exemple 28]	0,66	1,24	1,22 g/l	6,0 g/l	4,31	54,4	–
O=S(=O)(CC1(O)CCCCC1)c1ccc(F)cc1 [Exemple 32]	0,73	1,14	0,92 g/l	10,99 g/l	4,00	65,17	–
O=S(=O)(CCCO)c1ccccc1 [Exemple 40]	0,99	1,56	0,93 g/l	3,76 g/l	–	61,2	–
CC(C)(Oc1ccc(Cl)cc1)C(=O)OCCCS(=O)(=O)c1ccccc1 [Exemple 47]	0,90	1,52	0,97 g/l	10,28 g/l	4,56	59,99	–
